For one data set, the target named is RIPK4 (Homo sapiens, UniProt P57078). The data set is described as follows: Radiometric 33P kinase assay, 376 Wild Type Kinase Panel. It is filed as biochemical. The following applies: 20 μM M13, 10 μM ATP; read-out: inhibition of enzyme activity relative to control. From the text: (§1) It was hypothesized that M13 may target kinases to reduce the inflammatory response. Determination and improvement of the selectivity of a compound by screening a large part of the kinome are of pivotal importance in the discovery of M13 signaling pathways for its anti-inflammatory activities. Radiometric assays were used based on the transfer of ^33P-labeled phosphate from ATP to the kinase substrates found in the 376 Wild Type Kinase Panel and 17 Lipid Kinase Panel (Reaction Biology) and a broad kinase selectivity screen for the inhibitory activity of M13 was performed. Briefly, radiometric assays are based on the transfer of 10 μM ^33P-labelled phosphate from ATP to the kinase substrate. […] FIGS. 2A and 2B show the targeted inhibitor effects of M13 on lipid kinases (FIG. 2A) and protein kinases (FIG. 2B).

Another data set addresses CDK6 (Homo sapiens, UniProt Q00534). The data set is described as above. It counts as biochemical. The following applies: 20 μM M13, 10 μM ATP; read-out: inhibition of enzyme activity relative to control.
Source text: as §1

A further data set concerns the target TRKB (Homo sapiens, UniProt Q16620). Described as above. It is filed as biochemical. The following applies: 20 μM M13, 10 μM ATP; read-out: inhibition of enzyme activity relative to control.
Source text: as §1

The next data set has as its system tester TA100. Kind of data set: Ames test (bacterial reverse mutation), strain TA100. It counts as cell-based, Salmonella typhimurium. The following applies: TA100, all tested concentrations. On the procedure:
(§2) The mutagenic potential of M13 was assessed using the Ames test. The Ames test, or bacterial reverse mutation test, introduced by Bruce Ames and his group in the early 1970s, is currently widely employed to assess the mutagenic potential of chemical compounds. In this biological assay, several strains of Salmonella ryphimurium carrying mutations in genes responsible for histidine synthesis are used, so these strains cannot produce this critical amino acid. […]
(§3) M13 at concentrations of […] and positive (NaN3; 2-nitrofluorene (NF) and 2-amonoanthracene) and negative (PBS) controls were tested on two tester strains; TA98 reverted from histidine dependence (auxotrophy) to histidine independence (prototrophy) by frameshift mutagens and tester TA100 reverted by mutagens that cause both frameshift and base pair substitution mutations. The colony numbers on the negative, positive control and M13 treated plates were determined by manual counting. The mean number of revertants per plate, the standard deviation, and the mutation factor (i.e., mean number of revertants on the test item plate/mean number of revertants on the vehicle plate) were calculated.
(§4) Next, the mutagenic potential of M13 using a Salmonella typhimurium reverse mutation assay were assessed (Ames test). […]

Data set [1] deals with cell cycle control/phosphorylation proteins. The data set is described as follows: Cell Cycle Control Phospho Antibody Array on Caco-2/BBe cell lysates. It counts as cell-based, human. The following applies: 24 hours. Here is the method: (§5) The mechanism by which M13 exerts its anti-cancer effects was explored. Cell lysates of Caco-2/BBe cells incubated for 24 hours with free M13, NL, or M13-NL were hybridized on cancer-related protein array membranes (Proteome Profiler™ Human XL Oncology Array), and cell cycle control/phosphorylation profiling protein antibody microarray slides (Cell Cycle Control Phospho Antibody Array).

The test system of another data set is 25 selected targets. Kind of data set: In vitro evaluation of safety and toxicity (InVEST) screening. On the procedure: Safety screening of M13 was performed using an in vitro evaluation of safety and toxicity (InVEST). The effects of M13 was tested against 25 selected targets, including factors known to be involved in toxicity in humans.
Data set [2] is described as follows: Thermodynamic (equilibrium) solubility. It is filed as physicochemical. The following applies: read-out: thermodynamic (or equilibrium) solubility. The text has this:
The main reason for failure in drug development is poor biopharmaceutical properties, which include low aqueous solubility, chemical instability.
(§6) The biopharmaceutical properties of the synthesized M13 (5-glutathione-6-shogaol) were characterized.

The next data set deals with HC-CSC. Kind of data set: MTT viability assay, 2D culture. It is filed as cell-based, human. Here is the method: (§7) PBMCs were provided by STEMCELL Technologies (STEMCELL Canada Inc.) and maintained in ImmunoCult™-XF T-cell Expansion Medium (Cat #10981). HIEC-6 cells were maintained in OptiMEM 1 Reduced Serum Medium supplemented with 20 mM HEPES, 10 mM GlutaMAX, 10 ng/mL Epidermal Growth Factor, 4% (v/v) fetal bovine serum (FBS), and 1% penicillin-streptomycin (PS). HCT-116 cells were maintained in ATCC-formulated McCoy's 5a medium, supplemented with 10% (v/v) FBS and 1% PS. Caco-2/BBe cells were grown in DMEM supplemented with 10% (v/v) FBS and 1% PS (v/v). Human colon cancer stem cells (HC-CSC) were maintained in complete growth media with serum and antibiotics (Cat #M36112-39S) from Celprogen Inc. (Torrance, CA, USA).
(§8) The […] (MTT) assay was used to study the effects of M13 on the viability of four 2D-cultured human intestinal cell lines (HIEC-6, HCT-116, Caco-2/BBe, and HC-CSC).
A general note: Formazan colour is commonly taken as a measure of viable cells.

Another data set has as its system HCT-116. The data set is described as follows: MTT viability assay, 2D culture. It is filed as cell-based, human. On the procedure:
as §7, §8

Another data set concerns Tester strain TA98. The data set is described as follows: Ames test (bacterial reverse mutation), strain TA98. It is filed as cell-based, Salmonella typhimurium. The following applies: TA98, all tested concentrations. On the procedure:
as §2, §3, §4
A general note: In the Ames test, an excess of revertant colonies over the control signals mutagenicity.

Data set [3] deals with human colon cancer cells (HCT-116). The following applies: cited from earlier work.
A further data set relates to cancer-related proteins. Kind of data set: Proteome Profiler Human XL Oncology Array on Caco-2/BBe cell lysates. It counts as cell-based. The following applies: 24 hours. Here is the method: as §5
A short description of data set [4]: Incubation with mouse intestinal microsomes (HPLC). It is filed as in vitro ADME. The following applies: mouse, intestinal microsomes; incubation for 30 minutes; read-out: relative content retained of the input.
Source text: as §6

In brackets after ≈: the same amount, converted by molar mass. Entries after “also recorded” stand apart in the source; their conditions may differ. Where two headings read alike, the source gives them in different places.

The inhibition is the drop in the measured response relative to a control, in per cent. The term solubility (thermodynamic) denotes solubility found after equilibrating the solid with the medium. A word on the IC50: it is the midpoint of a concentration-inhibition curve. A low value points to higher potency.

Chain of TRKB (Q16620 32-822): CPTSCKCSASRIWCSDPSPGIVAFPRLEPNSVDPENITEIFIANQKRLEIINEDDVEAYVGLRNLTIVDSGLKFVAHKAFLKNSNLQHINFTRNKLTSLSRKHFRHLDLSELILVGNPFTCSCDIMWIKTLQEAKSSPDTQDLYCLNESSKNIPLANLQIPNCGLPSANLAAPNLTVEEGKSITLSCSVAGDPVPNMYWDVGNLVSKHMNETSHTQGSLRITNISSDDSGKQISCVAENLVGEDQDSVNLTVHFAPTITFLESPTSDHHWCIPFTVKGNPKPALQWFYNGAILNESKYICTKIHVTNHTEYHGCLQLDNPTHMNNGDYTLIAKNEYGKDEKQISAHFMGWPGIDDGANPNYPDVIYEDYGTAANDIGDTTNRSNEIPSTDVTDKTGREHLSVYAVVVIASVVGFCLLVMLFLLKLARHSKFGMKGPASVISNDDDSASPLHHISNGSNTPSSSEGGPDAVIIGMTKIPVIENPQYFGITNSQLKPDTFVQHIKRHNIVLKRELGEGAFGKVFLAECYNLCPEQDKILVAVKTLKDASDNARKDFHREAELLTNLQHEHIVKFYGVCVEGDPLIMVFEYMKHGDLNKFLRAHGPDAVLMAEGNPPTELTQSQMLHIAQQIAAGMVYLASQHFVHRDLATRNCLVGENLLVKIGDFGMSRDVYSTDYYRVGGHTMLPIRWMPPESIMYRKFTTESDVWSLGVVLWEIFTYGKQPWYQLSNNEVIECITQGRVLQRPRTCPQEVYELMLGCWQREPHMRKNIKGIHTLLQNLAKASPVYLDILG
Chain of CDK6 (Q00534 whole entry): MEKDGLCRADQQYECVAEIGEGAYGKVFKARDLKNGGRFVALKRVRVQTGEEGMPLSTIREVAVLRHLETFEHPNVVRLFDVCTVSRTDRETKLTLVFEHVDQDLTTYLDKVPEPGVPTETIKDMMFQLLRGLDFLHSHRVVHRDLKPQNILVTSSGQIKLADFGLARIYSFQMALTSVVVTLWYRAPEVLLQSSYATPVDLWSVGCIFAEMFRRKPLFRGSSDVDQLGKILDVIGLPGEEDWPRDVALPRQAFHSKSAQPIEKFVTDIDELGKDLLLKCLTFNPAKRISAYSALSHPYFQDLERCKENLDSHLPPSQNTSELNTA
Chain of RIPK4 (P57078 whole entry): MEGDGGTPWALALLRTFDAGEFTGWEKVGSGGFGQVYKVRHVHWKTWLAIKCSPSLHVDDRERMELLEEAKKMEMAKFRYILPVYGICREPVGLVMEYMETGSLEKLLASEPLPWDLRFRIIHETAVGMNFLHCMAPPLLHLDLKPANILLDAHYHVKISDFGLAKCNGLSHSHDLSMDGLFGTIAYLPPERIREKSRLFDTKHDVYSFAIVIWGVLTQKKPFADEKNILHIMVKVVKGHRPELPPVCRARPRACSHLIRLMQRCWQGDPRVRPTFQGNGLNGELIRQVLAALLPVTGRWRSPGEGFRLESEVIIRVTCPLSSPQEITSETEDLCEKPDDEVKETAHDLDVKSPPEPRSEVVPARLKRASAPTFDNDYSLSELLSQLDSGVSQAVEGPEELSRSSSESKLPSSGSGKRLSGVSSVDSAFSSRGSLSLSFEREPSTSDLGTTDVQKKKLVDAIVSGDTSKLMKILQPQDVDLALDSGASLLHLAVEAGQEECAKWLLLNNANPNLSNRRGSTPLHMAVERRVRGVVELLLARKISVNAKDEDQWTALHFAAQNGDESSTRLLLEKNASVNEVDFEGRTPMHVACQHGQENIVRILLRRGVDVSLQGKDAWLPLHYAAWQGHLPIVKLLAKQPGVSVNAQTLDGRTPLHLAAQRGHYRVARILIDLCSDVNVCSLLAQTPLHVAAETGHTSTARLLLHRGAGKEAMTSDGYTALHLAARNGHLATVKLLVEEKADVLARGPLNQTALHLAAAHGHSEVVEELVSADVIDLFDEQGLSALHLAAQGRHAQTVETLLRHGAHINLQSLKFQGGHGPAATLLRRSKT

Consider `CCCCCC(CC(=O)CCc1ccc(O)c(OC)c1)SCC(NC(=O)CCC(N)C(=O)O)C(=O)NCC(=O)O` (stereo not drawn) [M13, 5-glutathione-6-shogaol], for which the inhibition at 20 µM at RIPK4, on CDK6 and at TRKB was 30 to 45% in each case. For the same molecule, the revertant colony numbers result in the data set with tester TA100 and in the data set with Tester strain TA98 was “did not demonstrate an increase in revertant colony numbers; also recorded: did not increase the number of revertant colonies” throughout. The “CDC25A and phosphorylated CDC25A (p-CDC25A) vs control and NL groups” value in data set [1] is recorded as “down-regulated”. In the data set on 25 selected targets, the “effect on the activities of 25 assorted targets from five target classes” value is “did not have any significant effect”. In addition, the “inhibition of GPCR targets, ion channel (5-HT3), phosphodiesterase, protease thrombin alpha” value in the data set with 25 selected targets was “did not inhibit”. Besides, in the data set with 25 selected targets, the “modulation of the activity of the nuclear receptor AHR” value was “did not significantly modulate”. The thermodynamic solubility was 1390 µM (≈ 812 µg/mL) in data set [2] (Example 1) and 1390 µM (≈ 811 µg/mL) in data set [2] (as printed in Example 6). In addition, the “fold by which IC50 against HIEC-6 is higher” value in the data set on HC-CSC (HIEC-6 vs HC-CSC) came out at 5.8 fold; in the data set with HCT-116 (HIEC-6 vs HCT-116), 2.5 fold. The IC50 in the data set on HC-CSC (Homo sapiens, 24 h incubation) came out at 17.4 µM; in the data set with HCT-116 (Homo sapiens, HCT-116, 24 h incubation) it was 40.1 µM. The bioactivity result in data set [3] is given as “exhibited bioactivity”. Also, the “22 cancer-related proteins, expression vs control group” value with cancer-related proteins was “significantly down-regulated”. For the same molecule, the remaining at 0.5 h in data set [4] came out at 86%.
